± gives the expanded uncertainty stated by the source.
Details: Liquid

## COC(C)=O [methyl ethanoate]
330.05 K
  vapor or sublimation pressure: 101.3 ± 3.6 kPa

## CCC(=O)OC [methyl propanoate]
352.65 K
  vapor or sublimation pressure: 101.3 ± 4 kPa

Reference: the NIST ThermoML archive (doi:10.1016/j.fluid.2008.07.004)
